Where a SMILES comes first, the peptide text is derived from it. Bridges are numbered along the chain shown (N, C = ends). [ ]: non-standard residue; d: D form. The star is where a group is joined. Ala(morpholin-4-yl) = N[C@@H](CN1CCOCC1)C(=O)O; Phe(4-COOH) = N[C@@H](Cc1ccc(C(=O)O)cc1)C(=O)O; Bip = N[C@@H](Cc1ccc(-c2ccccc2)cc1)C(=O)O; Phe(3-Me) = Cc1cccc(C[C@H](N)C(=O)O)c1; aIle = CC[C@@H](C)[C@H](N)C(=O)O; 4Pal = N[C@@H](Cc1ccncc1)C(=O)O; Cha = N[C@@H](CC1CCCCC1)C(=O)O; Cit = NC(=O)NCCC[C@H](N)C(=O)O; dNle = CCCC[C@@H](N)C(=O)O; Carboxymethyl = O=C(O)C*; Orn = NCCC[C@H](N)C(=O)O; Pra = C#CC[C@H](N)C(=O)O; Dab = NCC[C@H](N)C(=O)O; Nva = CCC[C@H](N)C(=O)O; Dap = NC[C@H](N)C(=O)O; Propargyl = C#CC*
Target: T1, human PD-1 / PD-L1-Ig binding on Jurkat cell line over-expressing human PD-1 (Jurkat-PD-1) (Homo sapiens, UniProt Q15116)
T1 construct: expressed in transfected cells; host or cells: Jurkat
T1 sequence (Q15116 25-288): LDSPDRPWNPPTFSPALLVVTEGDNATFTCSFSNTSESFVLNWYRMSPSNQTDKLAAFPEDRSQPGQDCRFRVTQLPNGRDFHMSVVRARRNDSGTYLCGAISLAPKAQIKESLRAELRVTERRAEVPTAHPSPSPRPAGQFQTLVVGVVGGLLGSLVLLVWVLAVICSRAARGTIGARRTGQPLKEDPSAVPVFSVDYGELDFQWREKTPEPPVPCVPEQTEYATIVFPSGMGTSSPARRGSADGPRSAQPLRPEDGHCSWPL
Assay: Jurkat-PD-1 Cell Binding High-Content Screening Assay (CBA)
Format: cell-based
Conditions: Jurkat HPD1_PDL1 IC50, Jurkat-PD-1 cells, PE-labeled PD-L1-Ig 20 nM final
Outline: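 Cell-bound PE-labeled PD-L1-Ig (20 nM final, 1 h) measured by high-content imaging after fixation and Hoechst 33342 counterstain. Compound was applied first for 2 h at 37° C. to Jurkat cells over-expressing human PD-1 in DMEM with 10% FCS.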

Row | IC50 [nM] | SMILES
1 | 310 | CC(C)C[C@@H]1NC(=O)[C@H](Cc2c[nH]c3ccccc23)NC(=O)[C@H](CC(=O)O)NC(=O)[C@H](Cc2ccc(O)cc2)NC(=O)[C@H](Cc2ccccc2)NC(=O)CSC[C@@H](C(=O)NCC(N)=O)NC(=O)[C@H]([C@@H](C)O)NC(=O)[C@H](C(C)C)NC(=O)[C@H](CC(C)C)NC(=O)[C@H](CC(N)=O)NC(=O)[C@@H](C)NC(=O)[C@H](CCCN)NC(=O)[C@H](C(C)C)NC(=O)[C@H](Cc2ccc(-c3ccccc3)cc2)NC1=O [Compound 1107] ({CH2CO}-FYDWL[Bip]V[Orn][dA]NLVTCG-NH2; thioether N-14)

Same assay, conditions: Jurkat-PD-1 cells, PE-labeled PD-L1-Ig 20 nM final; read-out: Jurkat HPD1_PDL1 IC50

Row | SMILES | IC50 [nM]
2 | CC[C@@H](C)[C@@H]1NC(=O)[C@H](Cc2ccc(-c3ccccc3)cc2)NC(=O)[C@H](CC(C)C)NC(=O)[C@H](Cc2cccc(C)c2)NC(=O)[C@H](CC(=O)O)NC(=O)[C@H](Cc2ccc(OCC(=O)O)cc2)NC(=O)[C@H](Cc2ccc(OCC(=O)O)cc2)NC(=O)CSC[C@@H](C(N)=O)NC(=O)[C@H](CO)NC(=O)[C@H](C(C)C)NC(=O)[C@H](CC(C)C)NC(=O)[C@H](CCN)NC(=O)[C@@H](CC(C)C)NC(=O)[C@H](CCCN)NC1=O [Compound 1653] ({CH2CO}-Y(Carboxymethyl)Y(Carboxymethyl)D[Phe(3-Me)]L[Bip][aIle][Orn][dL][Dab]LVSC-NH2; thioether N-14) | 33.5
3 | CC(C)C[C@H]1NC(=O)[C@H](CCCN)NC(=O)[C@H](CCC(=O)O)NC(=O)[C@H](Cc2ccc(-c3ccccc3)cc2)NC(=O)[C@H](C(C)C)NC(=O)[C@H](Cc2c[nH]c3ccccc23)NC(=O)[C@H](CC(=O)O)NC(=O)[C@H](Cc2ccncc2)NC(=O)[C@H](CC(N)=O)NC(=O)CSC[C@@H](C(=O)N[C@@H](C)C(N)=O)NC(=O)[C@H]([C@@H](C)O)NC(=O)[C@H](C(C)C)NC(=O)[C@H](CC2CCCCC2)NC(=O)[C@H](CCN)NC1=O [Compound 2195] ({CH2CO}-N[4Pal]DWV[Bip]E[Orn][dL][Dab][Cha]VTCA-NH2; thioether N-14) | 22.8
4 | CC[C@H](C)[C@@H]1NC(=O)[C@H](Cc2ccc(-c3ccccc3)cc2)NC(=O)[C@H](C(C)C)NC(=O)[C@H](Cc2c[nH]c3ccccc23)NC(=O)[C@H](CC(=O)O)NC(=O)[C@H](Cc2ccc(O)cc2)NC(=O)[C@H](CC(N)=O)NC(=O)CSC[C@@H](C(=O)N[C@@H](C)C(N)=O)NC(=O)[C@H](CO)NC(=O)[C@H](C(C)C)NC(=O)[C@H](CC(C)C)NC(=O)[C@H](CCN)NC(=O)[C@@H](CC(C)C)NC(=O)[C@H](CCN)NC1=O [Compound 1120] ({CH2CO}-NYDWV[Bip]I[Dab][dL][Dab]LVSCA-NH2; thioether N-14) | 11.5
5 | CC[C@H](C)[C@@H]1NC(=O)[C@H](Cc2ccc(-c3ccccc3)cc2)NC(=O)[C@H](C(C)C)NC(=O)[C@H](Cc2c[nH]c3ccccc23)NC(=O)[C@H](CC(=O)O)NC(=O)[C@H](Cc2ccc(C(=O)O)cc2)NC(=O)[C@H](Cc2ccc(OCC(=O)O)cc2)NC(=O)CSC[C@@H](C(=O)N[C@@H](C)C(N)=O)NC(=O)[C@H]([C@@H](C)O)NC(=O)[C@H](C(C)C)NC(=O)[C@H](Cc2cccc(F)c2)NC(=O)[C@H](CCN)NC(=O)[C@@H](CC(C)C)NC(=O)[C@H](CCCN)NC1=O [Compound 1670] | 13.9

The next lines start with the values.

Row | IC50 [nM] | SMILES
6 | 11 | CC(C)C[C@H]1NC(=O)[C@H](CCCN)NC(=O)[C@H](CN)NC(=O)[C@H](Cc2ccc(-c3ccccc3)cc2)NC(=O)[C@H](C(C)C)NC(=O)[C@H](Cc2c[nH]c3ccccc23)NC(=O)[C@H](CC(=O)O)NC(=O)[C@H](Cc2ccc(C(=O)O)cc2)NC(=O)[C@H](Cc2ccc(OCC(=O)O)cc2)NC(=O)CSC[C@@H](C(=O)N[C@@H](C)C(N)=O)NC(=O)[C@H]([C@@H](C)O)NC(=O)[C@H](C(C)C)NC(=O)[C@H](CC2CCCCC2)NC(=O)[C@H](CCN)NC1=O [Compound 1384]
7 | 9.4 | C#CC[C@H](NC(=O)[C@H](CCN)NC(=O)[C@@H]1CSCC(=O)N[C@@H](CN2CCOCC2)C(=O)N[C@@H](Cc2ccc(OCC(=O)O)cc2)C(=O)N[C@@H](CC(=O)O)C(=O)N[C@@H](Cc2cccc(C)c2)C(=O)N[C@@H](Cc2ccc(OCC(=O)O)cc2)C(=O)N[C@@H](Cc2ccc(-c3ccccc3)cc2)C(=O)N[C@@H](Cc2ccc(OCC(=O)O)cc2)C(=O)N[C@@H](CCCN)C(=O)N[C@H](CC(C)C)C(=O)N[C@@H](CCN)C(=O)N[C@@H](CC2CCCCC2)C(=O)N[C@@H](C(C)C)C(=O)N[C@@H](CCC(=O)O)C(=O)N1)C(=O)O [Compound 1827] ({CH2CO}-[Ala(morpholin-4-yl)]Y(Carboxymethyl)D[Phe(3-Me)]Y(Carboxymethyl)[Bip]Y(Carboxymethyl)[Orn][dL][Dab][Cha]VEC[Dab][Pra]-OH; thioether N-14)
8 | 7.4 | Cc1cccc(C[C@@H]2NC(=O)[C@H](CC(=O)O)NC(=O)[C@H](Cc3ccc(C(=O)O)cc3)NC(=O)[C@H](Cc3ccc(OCC(=O)O)cc3)NC(=O)CSC[C@@H](C(=O)NCC(N)=O)NC(=O)[C@H](CO)NC(=O)[C@H](C(C)C)NC(=O)[C@H](CC(C)C)NC(=O)[C@H](CCN)NC(=O)[C@@H](CC(C)C)NC(=O)[C@H](CCCN)NC(=O)[C@H](C(C)C)NC(=O)[C@H](Cc3ccc(-c4ccccc4)cc3)NC(=O)[C@H](CC(C)C)NC2=O)c1 [Compound 1260] ({CH2CO}-Y(Carboxymethyl)[Phe(4-COOH)]D[Phe(3-Me)]L[Bip]V[Orn][dL][Dab]LVSCG-NH2; thioether N-14)
9 | 5.8 | CCNC(=O)[C@H](CCN)NC(=O)[C@@H]1CSCC(=O)N[C@@H](CN)C(=O)N[C@@H](Cc2ccc(OCC(=O)O)cc2)C(=O)N[C@@H](CC(=O)O)C(=O)N[C@@H](Cc2cccc(C)c2)C(=O)N[C@@H](C(C)C)C(=O)N[C@@H](Cc2ccc(-c3ccccc3)cc2)C(=O)N[C@@H](CCCNC(N)=O)C(=O)N[C@@H](CCCN)C(=O)N[C@H](CC(C)C)C(=O)N[C@@H](CCN)C(=O)N[C@@H](CC2CCCCC2)C(=O)N[C@@H](C(C)C)C(=O)N[C@@H]([C@@H](C)O)C(=O)N1 [Compound 2009] ({CH2CO}-[Dap]Y(Carboxymethyl)D[Phe(3-Me)]V[Bip][Cit][Orn][dL][Dab][Cha]VTC[Dab]-NHEt; thioether N-14)
10 | 3.6 | C#CCOc1ccc(C[C@@H]2NC(=O)[C@H](Cc3cccc(C)c3)NC(=O)[C@H](CC(=O)O)NC(=O)[C@H](Cc3ccc(C(=O)O)cc3)NC(=O)[C@H](CCC)NC(=O)CSC[C@@H](C(=O)N[C@@H](CCN)C(N)=O)NC(=O)[C@H](CCC(=O)O)NC(=O)[C@H](C(C)C)NC(=O)[C@H](CC3CCCCC3)NC(=O)[C@H](CCN)NC(=O)[C@@H](CC(C)C)NC(=O)[C@H](CCCN)NC(=O)[C@H](Cc3ccc(C(=O)O)cc3)NC(=O)[C@H](Cc3ccc(-c4ccccc4)cc3)NC2=O)cc1 [Compound 1830] ({CH2CO}-[Nva][Phe(4-COOH)]D[Phe(3-Me)]Y(Propargyl)[Bip][Phe(4-COOH)][Orn][dL][Dab][Cha]VEC[Dab]-NH2; thioether N-14)
11 | 10.3 | CCCC[C@H]1NC(=O)[C@H](CCCN)NC(=O)[C@H](CCC(=O)O)NC(=O)[C@H](Cc2ccc(-c3ccccc3)cc2)NC(=O)[C@H](C(C)C)NC(=O)[C@H](Cc2c[nH]c3ccccc23)NC(=O)[C@H](CC(=O)O)NC(=O)[C@H](Cc2ccncc2)NC(=O)[C@H](Cc2ccc(OCC(=O)O)cc2)NC(=O)CSC[C@@H](C(=O)N[C@@H](C)C(N)=O)NC(=O)[C@H]([C@@H](C)O)NC(=O)[C@H](C(C)C)NC(=O)[C@H](CC2CCCCC2)NC(=O)[C@H](CCN)NC1=O [Compound 1451] ({CH2CO}-Y(Carboxymethyl)[4Pal]DWV[Bip]E[Orn][dNle][Dab][Cha]VTCA-NH2; thioether N-14)

Reference: patent publication US20250163104A1, “MACROCYCLIC IMMUNOMODULATORS” (priority 2021, published 2025)
